Measured values published in paper PMC12808100, “The non-catalytic DNA polymerase ε subunit is an NPF motif recognition protein” (Nature Communications, 2025).

Biological target: His6-avi-MBP-tagged POLE2
Test: Single-point nHU-MS with recombinant His6-avi-MBP-POLE2 bait, Jurkat extract
Type: binding, human
Settings: significant apparent affinity of endogenous prey protein for POLE2 bait; single-point nHU-MS; Figure S11
Excerpt: So far, our study only focused on a few hand-picked NPF motifs and studied them as short synthetic peptides. However, many other proteins may be present in the proteome that could bind to POLE2 and their putative NPF motifs are embedded in their natural structures that can greatly affect their binding properties. To investigate interactions between POLE2 and intact, full length proteins proteome-wide, we used nHU-MS experiments with recombinant His6-avi-MBP-tagged POLE2 as bait and purified His6-avi-MBP as a control. Even though we are aware that this recombinant POLE2 may bind to NPF motifs with a somewhat altered affinity, we assumed that this would affect all NPF motif-mediated interactions equally, allowing an unbiased affinity ranking of all identified partners. Single point nHU measurements were performed at 26 μM POLE2 concentration and the recovered supernatant was measured by label free proteomic MS measurements (Fig. 3A, Supplementary Figs. 8A, 9, Supplementary Data 1).
Single-point nHU experiments with protein baits were carried out nearly identically with two key modifications. First, the resin saturation step was carried out by mixing 50 μl streptavidin resin with 0.5−1 ml 50 μM biotinylated protein solution and the mixture was incubated for 1.5 h at 4 °C with constant agitation. Second, instead of using estimated bait concentrations, we measured it experimentally. An extra aliquot of resin stock was prepared alongside the nHU samples that were identically processed that were used to eluate the immobilized proteins under harsh conditions, in order to experimentally quantify the Cbait by using densitometry of Coomassie stained SDS-PAGE that included a protein calibration series. For this, 50 μl bait-saturated resin aliquots were mixed with 200 μl 4x Laemmli Sample Buffer (120 mM Tris-HCl pH 7, 8% SDS, 100 mM DTT, 32% glycerol, 0.004% bromphenol blue, 1% β-mercaptoethanol), instead of cell extract. After 15 min incubation at 95 °C, these samples were analyzed by SDS-PAGE using protein calibration standard, made from recombinant MBP. Densitometry was carried out after Coomassie staining on raw Tif images by using Fiji ImageJ 1.53c and experimental bait concentration were determined by adjusting for molecular weight differences between MBP and MBP-POLE2 constructs.
Samples were digested overnight at 37 °C.

Row | Substance | pKapp_sign
1 | HARISSTSHT [TRIP11, endogenous full length prey protein] | 4.056
2 | KSVD [MYCBP2] | 4.444
3 | NSVD [GYS1] | 4.403
4 | TSSTPE [AGFG1, endogenous full length prey protein] | 4.872
